Source: patent US20260159474A1, “Aminoindane Compounds and Compositions and Methods of Their Therapeutic Use” (Solvonis Therapeutics Ireland Holdings Limited, priority 2021, published 2026)

Assay: Brain tissue binding by equilibrium dialysis, rat brain homogenate
Type: in vitro ADME
Conditions: male, Sprague Dawley, pH 7.4, read-out: Rat brain tissue binding (Fu %)
Procedure: Methods: Plasma protein binding and blood tissue binding of test items (0.5 μM) was determined using biological samples from male Sprague Dawley (SD) rats and humans. […] Dexamethasone was used as a control compound for lung tissue binding. Various biological samples were spiked with test compounds according to the methods that follow.
Preparation of brain homogenate samples: Test items were dissolved in DMSO (or an appropriate solvent) to give a 10 mM solution. Further dilutions, to obtain […] working solutions (WS), were then prepared using 50% acetonitrile in Milli Q water. These 100×WS were used to spike the brain homogenate to obtain a final concentration of 5 μM. From this initial spiking solution, control samples (n=3) referred to as T=0, were immediately extracted by protein precipitation.
An equilibrium dialysis method was performed to determine protein binding in the various biological samples described herein. Materials were prepared and methods were in accordance with the following procedures.
Membranes were prepared for use in the equilibrium dialysis experiment. by soaking in deionized water for at least 60 minutes. After this period, 20% of pure ethanol was added, and the membranes were left in this solution for at least 20 minutes. The membranes were then rinsed in Milli-Q water prior to use.
To initiate the experiment, 150 μL of test item-free buffer (isotonic phosphate buffer for plasma and blood, artificial CSF buffer for brain or HBSS buffer for lung) was dispensed on one half-well of a 96-well dialyzer apparatus (HTDialysis LLC), and 150 μL of spiked matrix (plasma, blood, brain or lung) was loaded on the other half-well. Alternative volumes may be used according to the operating instructions of HTDialysis.
The artificial cerebrospinal fluid (CSF) buffer was prepared as follows, NaCl 3.652 g, KCl 93.2 mg, MgCl2 119.96 mg, CaCl2 92.61 mg, Na2HPO4*H2O 268.0 mg. These were dissolved in […] of MilliQ water, and the pH was adjusted to a pH of 7.4 with H3PO4.
Dialysis buffer was prepared by dissolving Na2HPO4 8.69 g, KH2PO4 1.90 g, and NaCl 4.11 g in […] of MilliQ water, and adjusting the pH to 7.4 with H3PO4. […]
Samples were then injected onto an HPLC MS/MS or UPLC MS/MS system. In order to control the integrity of the membrane after the dialysis process, the presence of protein was assessed in the buffer compartment. […]
Samples were analyzed in a LC-MS/MS system using an analytical method to monitor the compound to internal standard peak area ratios as representative of the compound concentrations. Alternatively, samples were analyzed by RapidFire. […]
Work on `COC(=O)c1ccc2c(c1)CC(N)C2` (stereo not shown) [CMP-405, 2-aminoindane-5-methylcarboxylate] yielded a fraction unbound at 5 h, 5 μM of 0.24. For `COc1ccc2c(c1)CC(N)C2` (stereo not shown) [MEAI, 5-methoxy-2-aminoindane], the fraction unbound at 5 h, 5 μM was 0.33. Work on `COc1cc2c(cc1C)CC(N)C2` (stereo not shown) [MMAI, 5-methoxy-6-methyl-2-aminoindane] yielded a fraction unbound at 5 h, 5 μM of 0.12. With `COC(=O)c1cc2c(cc1OC)CC(N)C2` (stereo not shown) [CMP-401] the fraction unbound at 5 h, 5 μM was over 0.5.
